Experimental data: PubChem BioAssay (NCI)
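96-well plates; 48 h exposure; 5 concentrations. Endpoints by linear interpolation between flanking doses. Not reached: highest tested concentration assigned. TGI: concentration producing complete growth inhibition.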

Test system: MOLT-4 leukemia
Assay: inhibition of tumour cell growth, NCI panel, 48 h

SMILES | TGI [µM]
CC(C)(C)OC(=O)NC1CCCCC1NC(=O)C(=O)NC1CCCCC1NC(=O)OC(C)(C)C (stereo not drawn) | > 100
COc1cc(OC)c2nc(C)c(CCCl)c(Cl)c2c1 | > 100
COc1cc(C2c3cc4c(cc3OC(N3CCCCC3)C2C)OCO4)cc(OC)c1O (stereo not drawn) | > 91.3
O=C(/C=C/c1ccccc1)CCC1C(=O)c2ccccc2C1=O | > 100
Brc1ccc2[nH]cc(-c3csc(-c4c[nH]c5ccccc45)n3)c2c1 | 6.18
COc1cc(OC)cc(Oc2nc3ccccc3nc2C(F)(F)F)c1 | > 100
CCOC(=O)CCC(NC(=O)Cc1ccc(Nc2nc3cc(F)c(F)cc3nc2C(=O)OCC)cc1)C(=O)OCC (stereo not drawn) | > 100
[N-]=[N+]=Nc1c([N+](=O)[O-])c(=O)n(-c2ccccc2)c2ccccc12 | 59.1
O=[N+]([O-])c1ccc2[nH]c(=S)[nH]c(=S)c2c1 | > 100

Test system: UO-31 renal
Assay: inhibition of tumour cell growth, NCI panel, 48 h

SMILES | TGI [µM]
O=c1oc2ccc3ccccc3c2cc1-c1nc2ccccc2s1 | > 100
COC[C@@H](N=CC(C)(C)C)C(C)C | > 100
CC(C)(C)OC(=O)NC1CCCCC1NC(=O)C(=O)NC1CCCCC1NC(=O)OC(C)(C)C (stereo not drawn) | > 100
COc1cc(OC)c2nc(C)c(CCCl)c(Cl)c2c1 | > 100
COc1cc(C2c3cc4c(cc3OC(N3CCCCC3)C2C)OCO4)cc(OC)c1O (stereo not drawn) | 34.8
O=C(/C=C/c1ccccc1)CCC1C(=O)c2ccccc2C1=O | > 100
Brc1ccc2[nH]cc(-c3csc(-c4c[nH]c5ccccc45)n3)c2c1 | 11.3
COc1cc(OC)cc(Oc2nc3ccccc3nc2C(F)(F)F)c1 | > 100
CCOC(=O)CCC(NC(=O)Cc1ccc(Nc2nc3cc(F)c(F)cc3nc2C(=O)OCC)cc1)C(=O)OCC (stereo not drawn) | > 100
[N-]=[N+]=Nc1c([N+](=O)[O-])c(=O)n(-c2ccccc2)c2ccccc12 | 32.2
O=[N+]([O-])c1ccc2[nH]c(=S)[nH]c(=S)c2c1 | > 100

Test system: NCI/ADR-RES ovarian
Assay: inhibition of tumour cell growth, NCI panel, 48 h

SMILES | TGI [µM]
O=c1oc2ccc3ccccc3c2cc1-c1nc2ccccc2s1 | > 100
COC[C@@H](N=CC(C)(C)C)C(C)C | > 100
CC(C)(C)OC(=O)NC1CCCCC1NC(=O)C(=O)NC1CCCCC1NC(=O)OC(C)(C)C (stereo not drawn) | > 100
COc1cc(OC)c2nc(C)c(CCCl)c(Cl)c2c1 | > 100
COc1cc(C2c3cc4c(cc3OC(N3CCCCC3)C2C)OCO4)cc(OC)c1O (stereo not drawn) | 18.5
O=C(/C=C/c1ccccc1)CCC1C(=O)c2ccccc2C1=O | > 100
Brc1ccc2[nH]cc(-c3csc(-c4c[nH]c5ccccc45)n3)c2c1 | 10.5
COc1cc(OC)cc(Oc2nc3ccccc3nc2C(F)(F)F)c1 | > 100
CCOC(=O)CCC(NC(=O)Cc1ccc(Nc2nc3cc(F)c(F)cc3nc2C(=O)OCC)cc1)C(=O)OCC (stereo not drawn) | > 100
[N-]=[N+]=Nc1c([N+](=O)[O-])c(=O)n(-c2ccccc2)c2ccccc12 | 79.7
O=[N+]([O-])c1ccc2[nH]c(=S)[nH]c(=S)c2c1 | > 100

Test system: SK-OV-3 ovarian
Assay: inhibition of tumour cell growth, NCI panel, 48 h

SMILES | TGI [µM]
O=c1oc2ccc3ccccc3c2cc1-c1nc2ccccc2s1 | > 100
COC[C@@H](N=CC(C)(C)C)C(C)C | > 100
CC(C)(C)OC(=O)NC1CCCCC1NC(=O)C(=O)NC1CCCCC1NC(=O)OC(C)(C)C (stereo not drawn) | > 100
COc1cc(OC)c2nc(C)c(CCCl)c(Cl)c2c1 | > 100
COc1cc(C2c3cc4c(cc3OC(N3CCCCC3)C2C)OCO4)cc(OC)c1O (stereo not drawn) | 19.9
O=C(/C=C/c1ccccc1)CCC1C(=O)c2ccccc2C1=O | > 100
Brc1ccc2[nH]cc(-c3csc(-c4c[nH]c5ccccc45)n3)c2c1 | 20.7
COc1cc(OC)cc(Oc2nc3ccccc3nc2C(F)(F)F)c1 | > 100
CCOC(=O)CCC(NC(=O)Cc1ccc(Nc2nc3cc(F)c(F)cc3nc2C(=O)OCC)cc1)C(=O)OCC (stereo not drawn) | > 100
[N-]=[N+]=Nc1c([N+](=O)[O-])c(=O)n(-c2ccccc2)c2ccccc12 | > 100
O=[N+]([O-])c1ccc2[nH]c(=S)[nH]c(=S)c2c1 | > 100

Test system: M14 melanoma
Assay: inhibition of tumour cell growth, NCI panel, 48 h

SMILES | TGI [µM]
O=c1oc2ccc3ccccc3c2cc1-c1nc2ccccc2s1 | > 100
COC[C@@H](N=CC(C)(C)C)C(C)C | > 100
CC(C)(C)OC(=O)NC1CCCCC1NC(=O)C(=O)NC1CCCCC1NC(=O)OC(C)(C)C (stereo not drawn) | > 100
COc1cc(OC)c2nc(C)c(CCCl)c(Cl)c2c1 | > 100
COc1cc(C2c3cc4c(cc3OC(N3CCCCC3)C2C)OCO4)cc(OC)c1O (stereo not drawn) | > 69.4
O=C(/C=C/c1ccccc1)CCC1C(=O)c2ccccc2C1=O | > 100
Brc1ccc2[nH]cc(-c3csc(-c4c[nH]c5ccccc45)n3)c2c1 | 5.14
COc1cc(OC)cc(Oc2nc3ccccc3nc2C(F)(F)F)c1 | > 100
CCOC(=O)CCC(NC(=O)Cc1ccc(Nc2nc3cc(F)c(F)cc3nc2C(=O)OCC)cc1)C(=O)OCC (stereo not drawn) | > 100
[N-]=[N+]=Nc1c([N+](=O)[O-])c(=O)n(-c2ccccc2)c2ccccc12 | 73.1
O=[N+]([O-])c1ccc2[nH]c(=S)[nH]c(=S)c2c1 | > 100
